Measured values from patent US9676734B2, “Compounds and methods” (VIRONOVA INFLUENZA AB, priority 2012, dated 2017).

Tested on: Caco2
Assay: Caco2 permeability assay
Format: in vitro ADME
Details: relative to Nucleozin
Description: A Caco2 permeability assay was performed using the inventive compound VNFC 0009 as well as Nucleozin.

Cc1onc(-c2ccccc2)c1C(=S)N1CCN(c2ccc([N+](=O)[O-])cc2Cl)CC1 [VNFC 0009, (4-(2-chloro-4-nitrophenyl)piperazin-1-yl)(5-methyl-3-phenylisoxazol-4-yl)methanethione]
Caco2 permeability in the apical to basal direction, higher than that of Nucleozin (apical to basal): about 30% | basal to apical Caco2 permeability, times lower than that of Nucleozin (basal to apical): ~7 times
